In patent US20150306107A1, “SAA Derivative Compound Restores eNOS And Inhibits Oxidative Stress-Induced A Diseases In Hypoxia” (JANSFAT BIOTECHNOLOGY CO., LTD., priority 2014, published 2015):

Experiments:
eNOS [1] = assay: Western blotting of eNOS expression in isolated rat pulmonary artery ring, short-term (acute) hypoxia or normoxia; format: cell-based; settings: isolated pulmonary artery, acute hypoxia
Protocol: (§1) In our in vitro short-term experiment, isolated rat pulmonary artery was grown under normoxia (20% O2) or hypoxia (1% O2) at 37° C. for 24 hrs as was previously done (Wu BN, et al. Int J Immunopathol Pharmacol 24:925, 2011). The heart weight and body weight ratio (HW/BW) of the rats treated with one of SPAAX-1, SPAAX-1 RX complex, Sildenafil or Sildenafil RX complex each measured on the 21st hypoxic day. All animal care and the experimental protocols of this study were approved by the Animal Care and Use Committee of the Kaohsiung Medical University. Male Wistar rats (200-250 g), provided by the National Laboratory Animal Breeding and Research Center (Taipei, Taiwan), were housed under constant temperature and controlled illumination. Food and water were available ad libitum.
(§2) Whole right lung tissues of hypoxia-treated and untreated rats were isolated and cut into small strips and placed into an extraction buffer (Tris 10 mM, pH 7.0, NaCl 140 mM, PMSF 2 mM, DTT 5 mM, NP-40 0.5%, pepstatin A 0.05 mM and leupeptin 0.2 mM) for protein extraction, and then centrifuged at 12,500 g for 30 min. To measure the expression levels of the proteins, the total proteins were extracted and Western blotting analysis was performed as described previously (Bivalacqua T J, et al., 2013, TJ PLoSONE 8: e68028. doi:10.1371/journal. pone.0068028). Briefly, the protein extract was boiled to a ratio of 4:1 with a sample buffer (Tris 100 mM, pH 6.8, glycerol 20%, SDS 4% and bromophenol blue 0.2%). Electrophoresis was performed using 10% SDS-polyacrylamide gel (2 hr, 100 V, 40 mA, […] protein per lane). Separated proteins were transferred to PVDF membranes treated with 5% fat-free milk powder to block the nonspecific IgGs (90 min, 100 V) and incubated for one hour with a specific protein antibody. The blot was then incubated with anti-mouse or anti-goat IgG linked to alkaline phosphatase (1:1000) for 1 hr. Immunoreactive bands were visualized using horseradish peroxidase-conjugated secondary antibodies and subsequent electrochemiluminescence (ECL) detection (GE Healthcare Bio-Sciences Corp., Piscataway, N.J., U.S.A.). Mouse or rabbit monoclonal antibody of eNOS (Upstate, N.Y., U.S.A.), sGCα (Sigma-Adrich, CA, U.S.A., sGCβ (Santa Cruz, Calif., U.S.A.), PDE-5A (BD Tansduction, San Jose, Calif., U.S.A.), PKG (Calbiochem, San Diego, Calif., U.S.A.) ROCKII (Upstate, N.Y., U.S.A.), RhoA (Santa Cruze, Calif., U.S.A.) and the loading control protein β-actin (Sigma-Adrich, MO, U.S.A.) were used in our Western blot analysis.
(§3) The Western blotting analysis measurements were performed as per lung tissue.

VEGF [2] = assay: Western blotting of VEGF expression in isolated rat pulmonary artery ring, short-term (acute) hypoxia; format: cell-based; settings: isolated pulmonary artery
Protocol: as §1, §2, §3

sGCα1 [3] = assay: Western blotting of sGCα1 expression in isolated pulmonary artery, short-term hypoxia; format: cell-based, rat
Protocol: as §1
Whole right lung tissues of hypoxia-treated and untreated rats were isolated and cut into small strips and placed into an extraction buffer (Tris 10 mM, pH 7.0, NaCl 140 mM, PMSF 2 mM, DTT 5 mM, NP-40 0.5%, pepstatin A 0.05 mM and leupeptin 0.2 mM) for protein extraction, and then centrifuged at 12,500 g for 30 min. To measure the expression levels of the proteins, the total proteins were extracted and Western blotting analysis was performed as described previously (Bivalacqua T J, et al., 2013, TJ PLoSONE 8: e68028. doi:10.1371/journal. pone.0068028). […]

hypoxic rats [4] = assay: Hemodynamics of rats with hypoxic PAH, chronic hypoxia 21 days; format: in vivo, rat; settings: 5 mg/kg/day, p.o.
Description: Int J Immunopathol Pharmacol 24:925, 2011). The heart weight and body weight ratio (HW/BW) of the rats treated with one of […] complex, Sildenafil or Sildenafil RX complex each measured on the 21st hypoxic day. All animal care and the experimental protocols of this study were approved by the Animal Care and Use Committee of the Kaohsiung Medical University. Male Wistar rats (200-250 g), provided by the National Laboratory Animal Breeding and Research Center (Taipei, Taiwan), were housed under constant temperature and controlled illumination. Food and water were available ad libitum. Normoxic rats were housed in room temperature air at normal atmospheric pressure (760 mm Hg). […] After completion of the exposure, tissues were prepared as indicated for contraction measurements, Western blot analysis, RNA extraction, or morphological analysis. […] Their breathing was normal and their body temperature was maintained at 37° C. […] The animals were then sacrificed by the administration of an overdose of urethane.

hypoxic rats [5] = assay: Pulmonary artery wall thickness and muscularization (HE staining) after long-term hypoxia; format: in vivo, rat
Protocol: (§4) The right lobes of the rat lungs and heart of six rats from each group were cut and soaked in formalin, dehydrated through graded alcohols, and embedded in paraffin wax. The lung tissue specimens fixed with formalin (4%) were embedded in paraffin for one hour at 4° C., cut into 4-μm-thick sections, and subjected to H&E staining before examination by light microscope. In our histopathological study, we measured the thickening of the medial wall of the small intrapulmonary arteries under an Eclipse TE2000-S (Nikon) microscope. In the heart tissues, the 4-μm-thick paraffin sections were cut from paraffin-embedded tissue blocks and de-paraffinized by immersion in xylene and rehydrated as previously described (Bivalacqua T J, et al., PLoSONE 8: e68028. doi:10.1371/journal. pone.0068028). The slices were then dyed with H&E. After gently rinsing with water, each slide was dehydrated through graded alcohols and finally soaked in xylene twice. The relative cardiac weight of right ventricle (RV)/[left ventricle (LV)+intraventricular septum (S)] ratio (i.e. right heart index) was calculated using right ventricle/left ventricle+septum (RV/LV+S). Measurements were obtained with Histolab software (Microvision Instruments, Evry, France).

hypoxic rats [6] = assay: Right ventricular hypertrophy (RV/LV+S, right heart index) after long-term hypoxia; format: in vivo, rat; settings: compared to the hypoxia state
Protocol: as §4

eNOS [7] = assay: Immunohistochemistry of eNOS in pulmonary artery wall after long-term hypoxia; format: in vivo, rat
Protocol: (§5) For histological analysis, the rat pulmonary right lung sections or pulmonary artery were fixed in 4% formaldehyde for 1 hour at 4° C. After washing with phosphate buffer saline (PBS), they were sent for paraffin-embedded serial-sections. Serial cross-sections 7 μm thick were obtained from the cross-section of each pulmonary artery. Tissue sections were deparaffinized and rehydrated in an ethanol series. After tissue rehydration, endogenous peroxidase activity was quenched with 3% hydrogen peroxide for 30 minutes, and the sections were gently washed in PBS. Non-specific binding was blocked by incubation with 1% nonimmune bovine serum albumin (BSA) in PBS for 30 minutes at room temperature.
(§6) The tissue sections were incubated for 1 hour at room temperature with antibody against VEGF (ab1442, Millipore) or against eNOS (ab5589, Abcam) diluted 1:200 in PBS with 1% BSA. After being washed with PBS, the sections were incubated for 1 hour at room temperature with biotinylated goat antibody against rabbit (Dako, E-0432) and diluted 1:200 in PBS for 30 minutes at room temperature. The reaction was visualized by the addition of 3-3-diaminobenzidine (DAB) in a working solution of DAB substrate kit for peroxidase (vector lab, SK-4100) at room temperature for 5 minutes. The sections were washed in PBS for 10 minutes between each step, and counterstained with haematoxylin. […]

VEGF [8] = assay: Immunohistochemistry of VEGF in pulmonary artery wall after long-term hypoxia; format: in vivo, rat
Protocol: as §5, §6

eNOS [9] = assay: Western blotting of eNOS in lung tissue after long-term hypoxia; format: in vivo, rat; settings: hypoxia 21 days; compared to normoxia control
sGCα1 [10] = assay: Western blotting of sGCα1 in lung tissue after long-term hypoxia; format: in vivo, rat; settings: hypoxia 21 days; compared to normoxia control
PKG = assay: Western blotting of PKG in lung tissue after long-term hypoxia; format: in vivo, rat; settings: hypoxia 21 days
Protocol: as §2, with “Mouse or rabbit monoclonal antibody of eNOS (Upstate, N.Y., U.S.A.), sGCα (Sigma-Adrich, CA, U.S.A., sGCβ (Santa Cruz, Calif., U.S.A.), PDE-5A (BD Tansduction, San Jose, Calif., U.S.A.), PKG (Calbiochem, San Diego, Calif., U.S.A.) ROCKII (Upstate, N.Y., U.S.A.), RhoA (Santa Cruze, Calif., U.S.A.) and the loading control protein β-actin (Sigma-Adrich, MO, U.S.A.) were used in our Western blot analysis.” left out

ROCK II = assay: Western blotting of ROCK II in lung tissue after long-term hypoxia; format: in vivo, rat; settings: hypoxia 21 days; hypoxia 144.7±12.6%
VEGF [11] = assay: Western blotting of VEGF in lung tissue after long-term hypoxia; format: in vivo, rat; settings: hypoxia 21 days; hypoxia 168.9±24.6%
PDE5A = settings: hypoxia 21 days; % of the normal level; hypoxia 43.8±12.6%
[12] = tested on: reactive oxygen species (ROS) of lung tissues; settings: long-term hypoxia
Protocol: In our in vivo hypoxic experiments, 10-week old male Wistar rats were equally divided into four groups: a normoxia group, a hypoxia group, a hypoxia+SPAAX-1 or SPAAX-1 RX complex group, and a hypoxia+Sildenafil or Sildenafil RX complex group. All the rats were maintained on a 12-h light/12-hr dark cycle at 25±1° C. and were provided with food and water ad libitum. The normoxia group was housed in standard normoxic conditions and the other three treated groups were continuously housed in a hypoxic chamber (10% O2) for 21 days, except for a 30-min interval each day when the chamber was cleaned (FIG. 2). During which, a normoxic gas mixture was prepared from compressed air.
Pulmonary ROS was measured using 2′-7′-dichloro-fluorescein (H2DCF-DA, Molecular Probe, USA). Briefly, 10 μl of lung tissue extract was diluted 100-fold with cold PBS and labelled with 5 μmol/L 2′-7′-dichlorofluorescein, and the mixture was incubated at 37° C. for 30 minutes and put in a centrifuge (1000 rpm) for 5 min. Fluorescence was measured at 485 nm excitation and 530 nm emission to determine the concentration of H2O2 (FLUOstar Galaxy, Germany).

NOx in lung tissue = settings: 21 days of hypoxia; control group 100%, hypoxia 59.8±3.7%
Protocol: All the rats were maintained on a 12-h light/12-hr dark cycle at 25±1° C. and were provided with food and water ad libitum. The normoxia group was housed in standard normoxic conditions and the other three treated groups were continuously housed in a hypoxic chamber (10% O2) for 21 days, except for a 30-min interval each day when the chamber was cleaned (FIG. 2). During which, a normoxic gas mixture was prepared from compressed air.
Production of NO, represented by its metabolite nitrate+nitrite (NOx), in lung tissue extracts was determined using the Griess method (Chung H H et al, Br J Pharmacol 160: 971, 2010; Vascular Pharmacology 53: 239, 2010). The three step Greiss test converts nitrate (NO3^−) into nitrite (NO2^−), resulting in a total NO2^− concentration from a standard calibration curve. The lung tissue extracts were homogenized, washed with PBS and incubated in a lysis buffer in addition to a protease inhibitor cocktail (Sigma, St. Louis, Mo.) to obtain the extracts of lung proteins. […] The samples were then incubated (25° C, 10 min) with Griess reagent [N-(1-naphthyl)-ethylenediamine: 0.2% (w/v), sulphanilamide: 2% (w/v), solubilized in double-distilled water: 95% and phosphoric acid: 5% (v/v)] and the absorbance measured at 540 nm. […]

eNOS [13] = assay: Immunohistochemistry of eNOS in isolated pulmonary artery after short-term hypoxia; format: cell-based, rat; settings: short-term acute hypoxia; 40, 80 μM
Protocol: as §1
as §5, with “Non-specific binding was blocked by incubation with 1% nonimmune bovine serum albumin (BSA) in PBS for 30 minutes at room temperature.” left out

VEGF [14] = assay: Immunohistochemistry of VEGF in isolated pulmonary artery after short-term hypoxia; format: cell-based, rat; settings: short-term acute hypoxia; 40, 80 μM
Protocol: as §1
as §5, with “Non-specific binding was blocked by incubation with 1% nonimmune bovine serum albumin (BSA) in PBS for 30 minutes at room temperature.” left out

Compound	eNOS in acute hypoxia (eNOS [1])	VEGF in acute hypoxia (VEGF [2])	SGC-a in hypoxia (sGCα1 [3])	BW (body weight) (hypoxic rats [4]) [g]	MPAP (mean pulmonary arterial pressure) (hypoxic rats [4]; normoxia 12.9 ± 0.9, hypoxia 26.5 ± 0.6) [mmHg]	hypoxia-induced pulmonary artery wall thickness (hypoxic rats [5]; hypoxia 21 days, 5 mg/kg/day, hypoxia 165.8±5.4%)	muscularizations of distal pulmonary artery (HE staining) (hypoxic rats [5]; hypoxic rats, versus vehicle only)	thickness of Right ventricular (hypoxic rats [6])	eNOS immunostaining reactivity of pulmonary artery (eNOS [7])	VEGF immunostaining reactivity of pulmonary artery (VEGF [8])	eNOS expression in lung tissue (eNOS [9]) [%]	sGCα1 expression in lung tissue (sGCα1 [10]) [%]	PKG expression in lung tissue (PKG) [%]	ROCKII expression in lung tissue (ROCK II) [%]	VEGF expression in lung tissue (VEGF [11]) [%]	PDE5A expression in lung tissue (PDE5A) [%]	hypoxia-induced increase of dichlorofluorescein (ROS of lung tissues) [12]	levels of NOx in lung tissue (NOx in lung tissue) [%]	IHC of eNOS in isolated pulmonary artery (eNOS [13])	IHC of VEGF in isolated pulmonary artery (VEGF [14])
CCCc1nn(C)c2c(=O)[nH]c(-c3cc(S(=O)(=O)N4CCN(C)CC4)ccc3OCC)nc12.O=C1OC(C(O)CO)C(O)=C1O [Sildenafil ascorbate complex]	restored	inhibited	neither SPAAX-1 ascorbate complex nor Sildenafil ascorbate complex significantly affected	275.1 ± 10.4	19.8±0.7	inhibited	significantly lower	reduced	restored the decay of eNOS	reduced	102.6±7.7	72.0±4.7	68.7±3.7	97.4±10.9	125.7±22.5	109.0±3.8	reduced	84.5±14.2	–	–
L-sodium ascorbate+L-ascorbic acid buffer [ascorbic/ascorbate buffer]	–	–	–	–	–	–	–	–	–	–	–	–	–	–	–	–	–	–	reduced	reduced
